From article PMC12349723, “Computationally accelerated identification of P-glycoprotein inhibitors” (PLOS One, 2025)
Values joined by “and” are separate entries in the source; they are usually repeats but may differ in a detail not shown here. Equal entries are not always repeated.

Experiments:
A2780 cells = test: MTT viability assay, parental A2780 cells, with or without PTX; assay type: cell-based, human; details: for Increase of PTX toxicity against parental A2780 cells: 15 µM compound with or without 500 nM PTX, 48 h, MTT; for Mean % Survival / % Survival (individual sample): A2780 cells; for Mean % Survival / viability at 15 µM: mean of 8 or 12 samples; for % Survival (individual sample): single samples; for viability at 15 µM: Homo sapiens, A2780, A2780 cells, read-out: Mean % Survival
Procedure: The chemotherapeutic sensitive DU145 human prostate cancer cells and the multidrug resistant sub-line, DU145-TXR, were generous gifts from Dr. Evan Keller (University of Michigan, Ann Arbor, MI). The MDR, P-gp overexpressing DU145-TXR cells were maintained under positive selection pressure by supplementing complete medium with 10 nM paclitaxel (Acros Organics, NJ). In addition to the aforementioned cell lines, the chemotherapeutic sensitive A2780 ovarian cancer cells (93112519, Sigma) and the multidrug resistant A2780-ADR (93112520, Sigma) were maintained in complete RPMI media consisting of RPMI-1640 with L-glutamine, 10% fetal bovine serum (FBS; Corning), 100 U/mL penicillin and 100 μg/mL streptomycin in a humidified incubator at 37 °C and 5% CO2. The MDR, P-gp overexpressing A2780-ADR cell line was maintained under positive selection pressure by supplementing complete medium with 100 nM doxorubicin (Fisher Scientific, NJ). The non-cancerous HFL1 (human lung fibroblast) cell line cell line was a generous gift from Dr. Robert Harrod (Southern Methodist University, Dallas, TX) and was maintained in complete F12K media consisting of F12K with 10% fetal bovine serum, 100 U/mL penicillin, and 100 µg/mL streptomycin (Gibco). Flasks and 96 well plates that were used with the non-cancerous line HFL1 were pre-treated with 0.1 mg/ml Collagen Type 1 (Gibco) and rinsed with PBS (Fisher).
Culture of the DU145, DU145-TXR, and HFL1 cell lines was performed as described in [8]. Culture of the A2780 and A2780-ADR cell lines was performed as described in [9]. MTT assays were performed as described in [8] with minor modifications. LC-MS/MS accumulation assays were performed as described in {Nanayakkara, 2018 #173} [9] with some modifications. […] The inhibitor concentration was lowered to 15 µM here, as the goal of the study was to identify compounds that were effective in reversing MDR at low concentrations, and to determine if the expanded virtual-assisted methods improved on our first-draft attempt. Compounds 56–98 were pre-screened using Resazurin cell viability assays: cells were incubated with 15 µM compound with or without 500 nM PTX for 48 hours, after which cell survival was assessed similar to [39]. Data represent the mean of two separate experiments, with n = 3 samples per experiment (n = 6 total) (S4 Table). The top performing compounds from this initial screen were re-tested with MTT viability assays against DU145-TXR cells, as described below.
MTT assays measure the reduction of yellow, water soluble 3-(4,5-dimethylthiazol-2-yl)-2,5-diphenyltetrazolium bromide (MTT) to blue, insoluble formazan crystals by cellular reductase processes in living cells. Cells were trypsinized from monolayers and seeded in complete medium in 96 well plates. Cancerous cell lines (DU145, DU145-TXR, A2780, A2780-ADR) were seeded at 3,000 cells per well in complete RPMI medium. The non-cancerous HFL1 line was seeded at 4,000 cells per well in complete F12K medium, in collagen-treated plates (Collagen Type 1, Gibco). Cells were incubated with experimental compounds for 48 hours at 37 °C and 5% CO2 in a humidified incubator. At 48 hours, MTT was added (20 µL/well of 5 mg/mL MTT in PBS) to each well. After incubation for 4 hours, the media was removed, and the formazan crystals were dissolved in 100 µL DMSO per well. Plates containing the semi-adherent A2780 or A2780-ADR lines were spun at 1400 rpm for 3 minutes prior to aspiration of media, and the addition of DMSO. Plates were shaken for 10 minutes at 500 rpm on an Orbital shaker (LabDoctor from MidSci, St Louis, MO). The absorbance was measured at 570 nm using a Bio-Tek Cytation 5 (Bio-Tek, Winooski, VT). The measured absorbance value was correlated with the number of metabolically active cells in that well, corrected for absorbance of media. […]

P-gp = biological target: T1, P-gp (Homo sapiens, UniProt P08183); test: LC-MS/MS intracellular accumulation assay with or without tariquidar (P-gp transport substrate test) in DU145-TXR cells; assay type: in vitro ADME; details: for P-gp transport substrate assessment: 5 µM compound with or without 500 nM tariquidar, LC-MS/MS
T1 construct: The MDR, P-gp overexpressing DU145-TXR cells were maintained under positive selection pressure; endogenous in cells; host or cells: DU145-TXR (paclitaxel-resistant sub-line of DU145 human prostate cancer cells)
Procedure, shortened: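 Analyte peak area normalised to internal standard and to lysate protein (BSA curve); relative accumulation compared between −/+ TQR by Student's t-test. Daunorubicin served as P-gp substrate positive control.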

[1] = DU145-TXR, 5 µM compound, 2.5 h, with 500 nM tariquidar, mean ± SD, triplicate
[2] = DU145-TXR, 5 µM compound, 2.5 h, without tariquidar, mean ± SD, triplicate
[3] = significant difference = likely P-gp transport substrate

T1 sequence (P08183 whole entry): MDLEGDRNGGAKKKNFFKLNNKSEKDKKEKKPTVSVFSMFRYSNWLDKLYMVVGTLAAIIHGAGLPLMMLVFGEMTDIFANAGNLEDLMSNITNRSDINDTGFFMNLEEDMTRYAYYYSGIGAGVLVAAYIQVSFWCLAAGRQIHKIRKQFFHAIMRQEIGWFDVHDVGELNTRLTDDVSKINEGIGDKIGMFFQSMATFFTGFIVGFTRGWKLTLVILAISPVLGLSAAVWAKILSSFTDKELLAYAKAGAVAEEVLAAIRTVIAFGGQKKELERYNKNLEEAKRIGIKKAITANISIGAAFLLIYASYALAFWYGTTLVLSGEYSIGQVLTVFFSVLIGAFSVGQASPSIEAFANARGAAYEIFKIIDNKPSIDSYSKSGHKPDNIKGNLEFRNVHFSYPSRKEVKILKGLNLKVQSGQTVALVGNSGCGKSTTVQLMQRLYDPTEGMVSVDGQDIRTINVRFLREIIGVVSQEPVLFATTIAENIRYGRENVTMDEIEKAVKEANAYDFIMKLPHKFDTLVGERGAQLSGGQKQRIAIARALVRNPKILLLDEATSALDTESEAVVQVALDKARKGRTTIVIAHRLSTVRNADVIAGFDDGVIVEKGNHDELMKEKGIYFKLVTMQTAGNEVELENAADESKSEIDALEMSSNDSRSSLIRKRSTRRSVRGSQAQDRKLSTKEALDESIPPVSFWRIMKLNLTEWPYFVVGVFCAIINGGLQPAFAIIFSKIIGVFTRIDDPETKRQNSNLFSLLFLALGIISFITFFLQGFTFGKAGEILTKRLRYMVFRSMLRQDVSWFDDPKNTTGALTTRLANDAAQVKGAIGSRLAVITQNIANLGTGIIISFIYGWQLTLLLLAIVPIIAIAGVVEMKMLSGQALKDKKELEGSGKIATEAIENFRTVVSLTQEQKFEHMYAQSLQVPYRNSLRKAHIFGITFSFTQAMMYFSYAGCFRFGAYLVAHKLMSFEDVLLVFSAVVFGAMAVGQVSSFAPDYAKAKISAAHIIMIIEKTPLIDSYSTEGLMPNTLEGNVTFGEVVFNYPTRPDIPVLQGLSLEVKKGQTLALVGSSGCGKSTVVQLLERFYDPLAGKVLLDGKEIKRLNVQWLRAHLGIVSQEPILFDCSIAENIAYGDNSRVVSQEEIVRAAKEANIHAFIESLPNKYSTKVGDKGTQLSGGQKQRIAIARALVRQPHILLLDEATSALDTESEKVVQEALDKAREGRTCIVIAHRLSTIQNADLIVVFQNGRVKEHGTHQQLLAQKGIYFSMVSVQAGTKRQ

Compound | Increase of PTX toxicity against parental A2780 cells (A2780 cells) | Mean % Survival (A2780 cells; 15 µM compound + 500 nM PTX) [%] | % Survival (individual sample) (A2780 cells; 15 µM compound + 500 nM PTX) | viability at 15 µM (A2780 cells; 15 µM compound alone) [%] | P-gp transport substrate assessment (P-gp; DU145-TXR, 2.5 h) | Intracellular accumulation (normalized ratio of compound to internal standard), Trial 1, + TQR (P-gp; [1]) | Intracellular accumulation (normalized ratio of compound to internal standard), Trial 2, + TQR (P-gp; [1]) | Intracellular accumulation (normalized ratio of compound to internal standard), Trial 1, - TQR (P-gp; [2]) | Intracellular accumulation (normalized ratio of compound to internal standard), Trial 2, - TQR (P-gp; [2]) | P (- TQR vs + TQR), Trial 1 (P-gp; Student's T test of the mean) | P (- TQR vs + TQR), Trial 2 (P-gp; Student's T test of the mean) | Significance of accumulation with tariquidar, Trial 1 (P-gp; [3]) | Significance of accumulation with tariquidar, Trial 2 (P-gp; [3]) | % Survival (individual sample) (A2780 cells; 15 µM compound alone) [%] | Intracellular accumulation (normalized ratio of compound to internal standard), Trial 3, + TQR (P-gp; [1]) | Intracellular accumulation (normalized ratio of compound to internal standard), Trial 3, - TQR (P-gp; [2]) | P (- TQR vs + TQR), Trial 3 (P-gp; Student's T test of the mean) | Significance of accumulation with tariquidar, Trial 3 (P-gp; [3])
O=S(=O)(Cc1nc2ccccc2n1CC(O)c1ccc(Cl)cc1)c1ccccc1 (centres unmarked) [Compound 97, OC(Cn1c(CS(=O)(=O)c2ccccc2)nc2ccccc12)c1ccc(Cl)cc1] | did not greatly increase the toxicity of PTX against the parental A2780 cells | 13.0 | 8% and 19% | 89.8 | unlikely to be transport substrates of P-gp | 0.08 ± 0.03 | 0.10 ± 0.02 | 0.07 ± 0.02 | 0.10 ± 0.02 | 0.7 | > 1 | N.S. (P > 0.05 = not significant (N.S.)) | N.S. (P > 0.05 = not significant (N.S.)) |  |  |  |  | 
COc1cccc(N2CCN(c3ccc4nnc(CCC(=O)Nc5ccc(F)c(F)c5)n4n3)CC2)c1 [Compound 101, COc1cccc(c1)N1CCN(CC1)c1ccc2nnc(CCC(=O)Nc3ccc(F)c(F)c3)n2n1] | did not greatly increase the toxicity of PTX against the parental A2780 cells | 14.3 |  | 91.9 | unlikely to be transport substrates of P-gp | 12.03 ± 2.45 | 22.88 ± 2.92 | 11.86 ± 1.16 | 21.17 ± 3.59 | 0.9 | 0.6 | N.S. (P > 0.05 = not significant (N.S.)) | N.S. (P > 0.05 = not significant (N.S.)) | 64 |  |  |  | 
Cc1ccc(-c2noc(-c3cn(Cc4ccc(NS(=O)(=O)c5ccccc5F)cc4)cn3)n2)cc1 [Compound 103, Cc1ccc(cc1)-c1noc(n1)-c1cn(Cc2ccc(NS(=O)(=O)c3ccccc3F)cc2)cn1] | did not greatly increase the toxicity of PTX against the parental A2780 cells | 13.6 | 10% and 18% and 19% | 52.9 | potential P-gp transport substrates | 5.61 ± 1.34 | 3.75 ± 0.34 | 5.13 ± 0.6 | 2.63 ± 0.52 | 0.6 | 0.04 | N.S. (P > 0.05 = not significant (N.S.)) | * (P < 0.05 = *) | 63 | 3.73 ± 0.15 | 3.21 ± 0.23 | 0.03 | * (P < 0.05 = *)
